Values after ≈ are worked out from the molar mass of the structure shown. Each block holds one molecule with its values, some of them ahead of it.
Legend:
Staphylococcus aureus [1] = experiment: Antibacterial activity against methicillin resistant Staphylococcus aureus USA400 assessed as reduction in bacterial cell growth incubated for 18 to 20 hrs by broth microdilution method; format: functional
Staphylococcus aureus [2] = experiment: Bactericidal activity against vancomycin resistant Staphylococcus aureus VRS11a assessed as reduction in bacterial cell growth incubated for 18 to 20 hrs followed by re-plating on tryptic soy agar plates at 37 degC for 18 hrs by broth microdilution assay; format: functional
Staphylococcus aureus [3] = experiment: Bactericidal activity against Staphylococcus aureus NRS107 assessed as reduction in bacterial cell growth incubated for 18 to 20 hrs followed by re-plating on tryptic soy agar plates at 37 degC for 18 hrs by broth microdilution assay; format: functional
Staphylococcus aureus [4] = experiment: Bactericidal activity against methicillin resistant Staphylococcus aureus NRS119 assessed as reduction in bacterial cell growth incubated for 18 to 20 hrs followed by re-plating on tryptic soy agar plates at 37 degC for 18 hrs by broth microdilution assay; format: functional
Listeria monocytogenes [5] = experiment: Bactericidal activity against Listeria monocytogenes ATCC 19111 assessed as reduction in bacterial cell growth incubated for 18 to 20 hrs followed by re-plating on tryptic soy agar plates at 37 degC for 18 hrs by broth microdilution assay; format: functional
Staphylococcus aureus [6] = experiment: Bactericidal activity against vancomycin resistant Staphylococcus aureus VRS10 assessed as reduction in bacterial cell growth incubated for 18 to 20 hrs followed by re-plating on tryptic soy agar plates at 37 degC for 18 hrs by broth microdilution assay; format: functional
Listeria monocytogenes [7] = experiment: Antibacterial activity against Listeria monocytogenes ATCC 19111 assessed as reduction in bacterial cell growth incubated for 18 to 20 hrs by broth microdilution method; format: functional
Streptococcus pneumoniae [8] = experiment: Bactericidal activity against Methicillin resistant Streptococcus pneumoniae ATCC 700677 assessed as reduction in bacterial cell growth incubated for 18 to 20 hrs followed by re-plating on tryptic soy agar plates at 37 degC for 18 hrs by broth microdilution assay; format: functional
Staphylococcus aureus [9] = experiment: Antibacterial activity against vancomycin resistant Staphylococcus aureus VRS10 assessed as reduction in bacterial cell growth incubated for 18 to 20 hrs by broth microdilution method; format: functional
Staphylococcus aureus [10] = experiment: Antibacterial activity against Staphylococcus aureus ATCC 6538 assessed as reduction in bacterial cell growth incubated for 18 to 20 hrs by broth microdilution method; format: functional
Staphylococcus aureus [11] = experiment: Bactericidal activity against vancomycin resistant Staphylococcus aureus VRS12 assessed as reduction in bacterial cell growth incubated for 18 to 20 hrs followed by re-plating on tryptic soy agar plates at 37 degC for 18 hrs by broth microdilution assay; format: functional
Enterococcus faecium [12] = experiment: Bactericidal activity against vancomycin resistant Enterococcus faecium ATCC 700221 assessed as reduction in bacterial cell growth incubated for 18 to 20 hrs followed by re-plating on tryptic soy agar plates at 37 degC for 18 hrs by broth microdilution assay; format: functional
Staphylococcus aureus [13] = experiment: Bactericidal activity against Staphylococcus aureus ATCC 6538 assessed as reduction in bacterial cell growth incubated for 18 to 20 hrs followed by re-plating on tryptic soy agar plates at 37 degC for 18 hrs by broth microdilution assay; format: functional
[14] = tested on: Staphylococcus epidermidis; experiment: Antibacterial activity against methicillin resistant Staphylococcus epidermidis NRS101 assessed as reduction in bacterial cell growth incubated for 18 to 20 hrs by broth microdilution method; format: functional
Staphylococcus aureus [15] = experiment: Antibacterial activity against vancomycin resistant Staphylococcus aureus VRS11a assessed as reduction in bacterial cell growth incubated for 18 to 20 hrs by broth microdilution method; format: functional
Staphylococcus aureus [16] = experiment: Antibacterial activity against Staphylococcus aureus NRS107 assessed as reduction in bacterial cell growth incubated for 18 to 20 hrs by broth microdilution method; format: functional
Staphylococcus aureus [17] = experiment: Bactericidal activity against methicillin-resistant Staphylococcus aureus USA300 assessed as reduction in bacterial cell growth incubated for 18 to 20 hrs followed by re-plating on tryptic soy agar plates at 37 degC for 18 hrs by broth microdilution assay; format: functional
Streptococcus pneumoniae [18] = experiment: Bactericidal activity against Cephalosporin resistant Streptococcus pneumoniae ATCC 51916 assessed as reduction in bacterial cell growth incubated for 18 to 20 hrs followed by re-plating on tryptic soy agar plates at 37 degC for 18 hrs by broth microdilution assay; format: functional
Enterococcus faecalis = experiment: Bactericidal activity against vancomycin resistant Enterococcus faecalis ATCC 51299 assessed as reduction in bacterial cell growth incubated for 18 to 20 hrs followed by re-plating on tryptic soy agar plates at 37 degC for 18 hrs by broth microdilution assay; format: functional
Staphylococcus aureus [19] = experiment: Antibacterial activity against vancomycin resistant Staphylococcus aureus VRS12 assessed as reduction in bacterial cell growth incubated for 18 to 20 hrs by broth microdilution method; format: functional
Enterococcus faecium [20] = experiment: Antibacterial activity against vancomycin resistant Enterococcus faecium ATCC 700221 assessed as reduction in bacterial cell growth incubated for 18 to 20 hrs by broth microdilution method; format: functional
[21] = tested on: Staphylococcus epidermidis; experiment: Bactericidal activity against methicillin resistant Staphylococcus epidermidis NRS101 assessed as reduction in bacterial cell growth incubated for 18 to 20 hrs followed by re-plating on tryptic soy agar plates at 37 degC for 18 hrs by broth microdilution assay; format: functional
Staphylococcus aureus [22] = experiment: Antibacterial activity against methicillin resistant Staphylococcus aureus NRS119 assessed as reduction in bacterial cell growth incubated for 18 to 20 hrs by broth microdilution method; format: functional
Acinetobacter baumannii [23] = experiment: Antibacterial activity against Acinetobacter baumannii ATCC 19606 assessed as reduction in bacterial cell growth incubated for 18 to 20 hrs by broth microdilution method; format: functional
Klebsiella pneumoniae [24] = experiment: Bactericidal activity against Klebsiella pneumoniae BAA-1706 assessed as reduction in bacterial cell growth incubated for 18 to 20 hrs followed by re-plating on tryptic soy agar plates at 37 degC for 18 hrs by broth microdilution assay; format: functional
Pseudomonas aeruginosa [25] = experiment: Bactericidal activity against Pseudomonas aeruginosa ATCC 15442 assessed as reduction in bacterial cell growth incubated for 18 to 20 hrs followed by re-plating on tryptic soy agar plates at 37 degC for 18 hrs by broth microdilution assay; format: functional
Escherichia coli [26] = experiment: Bactericidal activity against Escherichia coli JW55031 harboring deltatolC mutant assessed as reduction in bacterial cell growth incubated for 18 to 20 hrs followed by re-plating on tryptic soy agar plates at 37 degC for 18 hrs by broth microdilution assay; format: functional
Acinetobacter baumannii [27] = experiment: Bactericidal activity against Acinetobacter baumannii ATCC 19606 assessed as reduction in bacterial cell growth incubated for 18 to 20 hrs followed by re-plating on tryptic soy agar plates at 37 degC for 18 hrs by broth microdilution assay; format: functional
Escherichia coli [28] = experiment: Antibacterial activity against Escherichia coli BW25113 assessed as reduction in bacterial cell growth incubated for 18 to 20 hrs by broth microdilution method; format: functional
Klebsiella pneumoniae [29] = experiment: Antibacterial activity against Klebsiella pneumoniae BAA-1706 assessed as reduction in bacterial cell growth incubated for 18 to 20 hrs by broth microdilution method; format: functional
Escherichia coli [30] = experiment: Antibacterial activity against Escherichia coli JW55031 harboring deltatolC mutant assessed as reduction in bacterial cell growth incubated for 18 to 20 hrs by broth microdilution method; format: functional
Escherichia coli [31] = experiment: BActericidal activity against Escherichia coli BW25113 assessed as reduction in bacterial cell growth incubated for 18 to 20 hrs followed by re-plating on tryptic soy agar plates at 37 degC for 18 hrs by broth microdilution assay; format: functional
Pseudomonas aeruginosa [32] = experiment: Antibacterial activity against Pseudomonas aeruginosa ATCC 15442 assessed as reduction in bacterial cell growth incubated for 18 to 20 hrs by broth microdilution method; format: functional
J774 = experiment: Cytotoxicity against mouse J774 assessed as reduction in cell viability at 16 ug/ml incubated for 24 hrs by MTS assay; format: cell-based; conditions: j774, 24 h
[33] = Solubility of compound in PBS after 2 hrs by turbidity based absorbance analysis; format: physicochemical

Molecule: C/C(=N\NC(=N)N)c1sc(-c2ccc(C#Cc3csc(C)c3C)cc2)nc1C
MIC (Staphylococcus aureus [1]): 16 µg/mL (≈ 39.3 µM)

Molecule: C/C(=N\NC(=N)N)c1sc(-c2ccc(C#Cc3ccsc3)cc2)nc1C
MIC (Staphylococcus aureus [1]): > 64 µg/mL

Molecule: C/C(=N\NC(=N)N)c1sc(-c2ccc(C#Cc3ncccn3)cc2)nc1C
MIC (Staphylococcus aureus [1]): > 64 µg/mL

Molecule: C/C(=N\NC(=N)N)c1sc(-c2ccc(C#Cc3ccc(C(N)=S)cc3)cc2)nc1C
MIC (Staphylococcus aureus [1]): 64 µg/mL (≈ 148 µM)

Molecule: CCOC(=O)C#Cc1ccc(-c2nc(C)c(/C(C)=N/NC(=N)N)s2)cc1
MIC (Staphylococcus aureus [1]): > 64 µg/mL

Molecule: C/C(=N\NC(=N)N)c1sc(-c2ccc(C#Cc3ccc(C(N)=O)cc3)cc2)nc1C
MIC (Staphylococcus aureus [1]): > 64 µg/mL

Molecule: COc1cccc(C#Cc2ccc(-c3nc(C)c(/C(C)=N/NC(=N)N)s3)cc2)c1
MIC (Staphylococcus aureus [1]): 4 µg/mL (≈ 9.91 µM)

Molecule: C/C(=N\NC(=N)N)c1sc(-c2ccc(C#Cc3ccoc3)cc2)nc1C
MIC (Staphylococcus aureus [1]): 4 µg/mL (≈ 11 µM)

Molecule: CC(=O)NC[C@H]1CN(c2ccc(N3CCOCC3)c(F)c2)C(=O)O1 [LINEZOLID]
MBC (Staphylococcus aureus [2]): 16 µg/mL (≈ 47.4 µM) | MBC (Staphylococcus aureus [3]): 16 µg/mL (≈ 47.4 µM) | MBC (Staphylococcus aureus [4]): > 64 µg/mL | MBC (Listeria monocytogenes [5]): 32 µg/mL (≈ 94.9 µM) | MBC (Staphylococcus aureus [6]): 16 µg/mL (≈ 47.4 µM) | MIC (Listeria monocytogenes [7]): ≤ 0.5 µg/mL | MBC (Streptococcus pneumoniae [8]): 32 µg/mL (≈ 94.9 µM) | MIC (Staphylococcus aureus [9]): 1 µg/mL (≈ 2.96 µM) | MIC (Staphylococcus aureus [10]): 1 µg/mL (≈ 2.96 µM) | MBC (Staphylococcus aureus [11]): 16 µg/mL (≈ 47.4 µM) | MBC (Enterococcus faecium [12]): 8 µg/mL (≈ 23.7 µM) | MIC (Staphylococcus aureus [1]): 1 µg/mL (≈ 2.96 µM) | MBC (Staphylococcus aureus [13]): 16 µg/mL (≈ 47.4 µM) | MIC [14]: ≤ 0.5 µg/mL | MIC (Staphylococcus aureus [15]): 1 µg/mL (≈ 2.96 µM) | MIC (Staphylococcus aureus [16]): 1 µg/mL (≈ 2.96 µM) | MBC (Staphylococcus aureus [17]): 32 µg/mL (≈ 94.9 µM) | MBC (Streptococcus pneumoniae [18]): 16 µg/mL (≈ 47.4 µM) | MBC (Enterococcus faecalis): 32 µg/mL (≈ 94.9 µM) | MIC (Staphylococcus aureus [19]): 1 µg/mL (≈ 2.96 µM) | MIC (Enterococcus faecium [20]): ≤ 0.5 µg/mL | MBC [21]: 16 µg/mL (≈ 47.4 µM) | MIC (Staphylococcus aureus [22]): 32 µg/mL (≈ 94.9 µM)

Molecule: C/C(=N\NC(=N)N)c1sc(-c2ccc(C#Cc3cc(O)ccc3C)cc2)nc1C
MIC (Staphylococcus aureus [1]): > 64 µg/mL

Molecule: COC(=O)c1ccccc1C#Cc1ccc(-c2nc(C)c(/C(C)=N/NC(=N)N)s2)cc1
MIC (Staphylococcus aureus [1]): 16 µg/mL (≈ 37.1 µM)

Molecule: COc1ccccc1C#Cc1ccc(-c2nc(C)c(/C(C)=N/NC(=N)N)s2)cc1
MIC (Staphylococcus aureus [1]): 16 µg/mL (≈ 39.7 µM)

Molecule: COC(=O)c1ccc(C#Cc2ccc(-c3nc(C)c(/C(C)=N/NC(=N)N)s3)cc2)c(C)c1
MIC (Staphylococcus aureus [1]): > 64 µg/mL

Molecule: C/C(=N\NC(=N)N)c1sc(-c2ccc(C#Cc3cncnc3)cc2)nc1C
MIC (Staphylococcus aureus [1]): > 64 µg/mL

Molecule: COLISTIN
MIC (Acinetobacter baumannii [23]): < 0.5 µg/mL | MBC (Klebsiella pneumoniae [24]): < 0.5 µg/mL | MBC (Pseudomonas aeruginosa [25]): 1 µg/mL | MBC (Escherichia coli [26]): < 0.5 µg/mL | MBC (Acinetobacter baumannii [27]): < 0.5 µg/mL | MIC (Escherichia coli [28]): < 0.5 µg/mL | MIC (Klebsiella pneumoniae [29]): < 0.5 µg/mL | MIC (Escherichia coli [30]): < 0.5 µg/mL | MBC (Escherichia coli [31]): < 0.5 µg/mL | MIC (Pseudomonas aeruginosa [32]): 1 µg/mL

solubility kinetic at 2 h [33]: 2.5 µM (≈ 0.934 µg/mL)
Molecule: C/C(=N\NC(=N)N)c1sc(-c2ccc(C#Cc3ccccc3)cc2)nc1C
Activity (J774): Toxic

Reference: ChEMBL document CHEMBL4393697, “Lipophilic efficient phenylthiazoles with potent undecaprenyl pyrophosphatase inhibitory activity” (Eur J Med Chem, 2019)
